We go through 1 compound from US20160263094A1, “Pantoprazole Sodium Composition Lyophilized Powder for Injection” (priority 2013, published 2016).

For the assay, the system named is gastric ulcer. In words: Glacial acetic acid-induced gastric ulcer in SD rats. The class given is in vivo. Conditions: 1.3 mg/kg, control group 2 continuous administration 15 d, treatment groups 10 d, three times a day. The method, then: 50 SD rats are used, made to starve for 24 h before testing. The abdominal cavity is opened under ether anesthesia, a glass tube with the inner diameter of 5 mm and the length of 30 mm is vertically placed on the surface of serosa of the gastric body and 0.2 ml of glacial acetic acid is added into the tube cavity. The glacial acetic acid is dipped out with a cotton swab after 5 min, and the surgical incision is sutured. Normal diet is permitted after the surgery, and animals are randomly divided into 5 groups on the next day: a control group 1 (distilled water), a control group 2 (pantoprazole sodium for injection), with continuous administration for 15 d, a treatment group 1 (embodiment 1), a treatment group 2 (embodiment 2) and a treatment group 3 (embodiment 3); and continuous administration is performed for 10 d, three times a day. The stomach is taken out by anatomy, fixed with formaldehyde, cut open along the greater curvature of the stomach and flat spread on a glass plate, and the transverse diameter d1 and the vertical diameter d2 of an ulcer are measured. The area of the ulcer S (mm2) is calculated according to a formula S=π×(d1/2)×(d2/2) to serve as an ulcer index, and ulcer healing rate and ulcer inhibition rate are calculated.

Molecules are shown by their SMILES.

Consider `COc1ccnc(C[S+]([O-])c2nc3cc(OC(F)F)ccc3[n-]2)c1OC.[Na+]` (stereo not shown) [Control group 2, 5-difluoromethoxy-2-[(3,4-dimethoxy-2-pyridinyl)methyl]sulfinyl-1H-benzimidazole], for which the Healing rate came out at 90%; the “Number of healed animals” value was determined as 9; the “Ulcer index (x ± s), ulcer area S=π×(d1/2)×(d2/2)” value is reported as 6.3 ± 6.1 mm2; the Ulcer inhibition rate was found to be 65.1%.
